From article PMC9961272, “Ca^2+-Dependent and -Independent Calmodulin Binding to the Cytoplasmic Loop of Gap Junction Connexins” (International Journal of Molecular Sciences, 2023) come the findings set out here.

The subject of one data set is CaM. Nature of the data set: CaM binding signals of Cx32 CT peptide.
Data set [1] has as its system gap junction coupling in HUVEC. Nature of the data set: Multiparametric scrape loading-dye transfer assay (Lucifer Yellow spread). Type of data set: cell-based, human. The settings on record: for LY spread after scratch wounding: 60 min pre-treatment, PMA 100 nM or 18ßGRR 100 µM, 15 min post-scratch; for LY spread in the absence of ionomycin stimulation: peptide 7 µM and 17.9 µM, 8 min pre-treatment + 8 min assay; for LY spread in the absence of ionomycin stimulation / LY spread after ionomycin pre-treatment in the presence of peptide: Ca2+-containing media; for LY spread after ionomycin pre-treatment in the presence of peptide: peptide 7 μM and 17.9 μM, 8 min + 8 min. As to the method: (§1) The assay is described in detail in [48]; it is an adaption of the traditional fluorescence microscopy-based scrape loading dye transfer (sl-dt) technique. Briefly, HUVEC in 24 well trays were rinsed into +Ca+Mg-PBS. The solution was then replaced with fresh +Ca+Mg-PBS supplemented with Lucifer Yellow (LY; 1 mg/mL), propidium iodide (PI; 15 μM) and Hoechst 33,342 (90 μM) (dye transfer buffer). Immediately after addition of the dye transfer buffer, 3 parallel cuts in the cell monolayer in the central part of each well in the 24 wells were made using a micro scalpel knife with a flat edge stainless steel blade. The cells were then incubated at 37 °C for 8 or 15 min, as specified, before being washed twice with +Ca+Mg-PBS to remove the dye transfer buffer and then fixed in 3% PFA in PBS. Fresh dye transfer buffer was used for each experiment and the plates were stored in the dark at 4 °C.
For quantitative analysis of dye transfer and cell viability, images were acquired from 2 to 3 regions within each cut (6–9 measurements per well) using an EVOS M5000 microscope (Invitrogen, Waltham, MA, USA) equipped with a 10 × 0.3 NA air objective and EVOS LED light cubes for bright field imaging, FITC, RedX and DAPI. Images were acquired sequentially and exported to ImageJ for processing.
Phorbol 12-myristate 13-acetate (PMA) or 18-β-glycyrrhetinic acid (18BGRR) was made up in dimethysulphoxide (DMSO) to a 10 mM or 50 mM stock, respectively, and diluted into HGM to a final concentration of 100 nM or 100 µM, respectively. Cells were incubated in PMA or 18BGRR acid containing solution for 60 min at 37 °C. The PMA or 18BGRR solution was then carefully removed and the cells were washed once in +Ca+Mg-PBS. The PBS was then replaced with the dye transfer buffer (see above) and immediately 3 parallel cuts were made in the cell monolayer in the central part of each well using a micro scalpel knife with a flat edge stainless steel blade. For each experiment drug treatments were carried out in triplicate wells each with 3 cuts per well. Cells were then processed as described above. For analysis of the Ca^2+ dependency of gap junction coupling, HUVEC were incubated in either +Ca+Mg-PBS (+Ca) or -Ca+Mg +0.2 mM EGTA (-Ca) containing PBS and stimulated with vehicle (0.001% DMSO), or 2 μM ionomycin for 8 min. Cells were then transferred to dye transfer buffer made using +Ca or −Ca PBS, supplemented with vehicle or 2 μM ionomycin, and 3 parallel cuts were made in cell monolayers in each well. Cells were incubated for a further 8 min prior to fixation. […] A stock solution of 3.6 mM was made to generate working concentrations of 6–18 µM.
Data analysis was carried out in the open-source-based software program Fiji ImageJ. A custom-made macro (Cut_Analyzer.ijm) published in the Supplementary Materials to [48] was used for the automated quantitation of gap junction intercellular communication using images acquired for the LY signal. Analysis of total cell number (Hoechst channel) and cell viability (propidium iodide channel) was made using custom made macros ([48] and Supplementary Methods).

For data set [2], the system named is HUVEC. Nature of the data set: Cell viability (PI+ cells) in dye transfer assay. Type of data set: cell-based. Conditions: PMA 100 nM or 18ßGRR 100 µM, 60 min; % of PI+ cells. The method, then: as §1, with “The cells were then incubated at 37 °C for 8 or 15 min, as specified, before being washed twice with +Ca+Mg-PBS to remove the dye transfer buffer and then fixed in 3% PFA in PBS. Fresh dye transfer buffer was used for each experiment and the plates were stored in the dark at 4 °C.” left out
Data analysis was carried out in the open-source-based software program Fiji ImageJ. A custom-made macro (Cut_Analyzer.ijm) published in the Supplementary Materials to [48] was used for the automated quantitation of gap junction intercellular communication using images acquired for the LY signal. […]
Analysis of cell number. To determine the number of cells per field of view we counted the number of Hoechst stained nuclei using a simple macro (Nuclei count.ijm) recorded […]
Counting cell nuclei using Fiji ImageJ. […] Images were then converted to a mask, a Watershed applied to identify and separate overlapping nuclei and objects counted using the Analyze particles function. […]
Analysis of cell viability. […] Cell viability was expressed as the fraction of cells negative for PI. […]

Data set [3] deals with HUVEC. As to the kind of experiment: Fura-2 epifluorescence imaging of [Ca2+]i. Type of data set: cell-based, human. Conditions: ionomycin 2 µM, fura-2 loaded HUVEC. As to the method: HUVEC were grown on 24 mm square uncoated glass coverslips in growth medium. For Fura-2 loading, the cells were transferred into Hanks solution (140 mM NaCl, 5 mM KCl, 1.8 mM CaCl2, 2 mM MgCl2, 10 mM glucose, 10 mM HEPES-NaOH pH 7.4) supplemented with 2.5 µM Fura-2AM (Molecular Probes, Eugene, Oregon, USA) diluted from a stock solution of 5 mM Fura-2AM in DMSO with 2.0% Pluoronic F-127. Cells were incubated at room temperature in the dark for 20 min before being transferred into fresh Hanks solution and further maintained in the dark at RT until use. Cells were transferred to the stage of an Olympus IX71 inverted fluorescence microscope and maintained at 32–34 °C. The imaging system comprised an excitation monochromator (Optoscan, Cairn Research), U-Plan-Apo ×100 1.35 NA objective and an Ixon EMCCD camera (Andor). Fura-2 was illuminated sequentially with 355 ± 5 nm and 380 ± 5 nm light and wavelength switching synchronised with image capture using WinFluor software (Dr John Dempster, Strathclyde University). The EMCCD camera was operated in frame transfer mode at full gain and cooled to −70 °C. Full frame (512 by 512 pixels) images were acquired at 30 frames/s. Ionomycin was applied by droplet application.

The target of another data set is TA-CaM (Homo sapiens, UniProt P0DP23). Conditions: Ca2+ titration of TA-CaM alone or with peptide.
A further data set addresses apo-DA-CaM (Homo sapiens, UniProt P0DP23, T111C/T35C). As to the kind of experiment: Stopped-flow association and dissociation kinetics with apo-DA-CaM (with and without 15% TFE). The settings on record: 500 nM DA-CaM with 10 µM mTrp, 5 mM EGTA, mixed with 300 µM CaM, 20 °C.

“Also recorded” adds a separate entry of the source.

Protocol for TA-CaM: The binding curves were fitted to the Hill equation to obtain Kd and Hill coefficient values (n) (Table 2).
The fluorescence was corrected for dilution and [Ca^2+] concentration was calculated using Maxchelator software. The data were fitted to the Hill equation with specific binding (y = Bmax∗x^n/(Kd^n + x^n)) using GraphPad Prism 9.
Protocol for apo-DA-CaM: We were interested to see if we can detect apo-CaM binding to Cx CL2 peptides using DA-CaM, the conformation of which is insensitive to [Ca^2+] changes, but which indicates changes in the distance between the N- and C-lobe with high sensitivity.
The kinetics of Ca^2+/DA-CaM and DA-CaM interactions with Cx CL2 peptides was measured using a TgK Scientific KinetAsyst™ double-mixing stopped-flow apparatus (TgK Scientific Ltd., Bradford-on-Avon, UK) in single mixing mode. The fluorescence was excited at 340 nm and the emission was detected by a photomultiplier tube with a long pass filter (>400 nm). […] All concentrations given are those in the mixing chamber. Data shown are averages of 3 to 5 repeats. All experiments were carried out at 20 °C. Data were analysed using Kinetic Studio software (TgK Scientific Ltd., Bradford-on-Avon, UK).

With EINKLLSEQDGSLKDILRRS [Cx32 CT peptide], in the data set on CaM, the CaM binding signal entry is on record as “unable to detect any signals indicating CaM binding”.

`CC1(C)[C@@H](O)CC[C@]2(C)[C@H]3C(=O)C=C4[C@@H]5C[C@@](C)(C(=O)O)CC[C@]5(C)CC[C@@]4(C)[C@]3(C)CC[C@@H]12` [18ßGRR, 18-β-glycyrrhetinic acid]: the “LY spread after scratch wounding” value in data set [1] is given as “significantly reduced LY spread”. Further, the “Cell viability following drug treatments” value with HUVEC [2] was “No evidence for decreased cell viability”.

For the compound `C[C@H](CCC(=O)O)C[C@H](C)C[C@H](C)C(=O)/C=C(\O)[C@H](C)C[C@H](C)C/C=C/[C@@H](C)[C@@H](O)[C@@H](C)[C@@H](O)C[C@@H]1CC[C@@](C)([C@H]2CC[C@@](C)([C@@H](C)O)O2)O1` [ionomycin], in data set [1] (ionomycin 2 µM, 8 min, external Ca2+ omitted), the “Effect on LY spread when external Ca^2+ omitted” value was “greatly reduced”. Moreover, the “LY spread after scratch formation” value in data set [1] (ionomycin 2 µM, 8 min pre-treatment, external Ca2+ present, 8 min LY spread) is given as “significantly reduced the spread of LY; also recorded: completely blocked”. Besides, in the data set on HUVEC [3], the “Change in [Ca^2+]i (fura-2 ratio)” value is “initial fast increase in [Ca^2+]i”.

With “N-[myr]-RRKEQKTGHAVRAIGRE-amide [control peptide]”, the “LY spread in the absence of ionomycin stimulation” value in data set [1] was “no significant difference in LY spread”. In data set [1] (ionomycin 2 µM), the “LY spread after ionomycin pre-treatment in the presence of peptide” value is reported as “significantly reduced LY spread”.

With `CCCCCCCCCCCCCC(=O)O[C@@H]1[C@@H](C)[C@@]2(O)[C@@H](C=C(CO)C[C@]3(O)C(=O)C(C)=C[C@@H]23)[C@@H]2C(C)(C)[C@]12OC(C)=O` [PMA, 12-phorbol 13-myristate acetate], the “LY spread after scratch wounding” value in data set [1] is given as “significantly reduced LY spread”. Also, the “Cell viability following drug treatments” value with HUVEC [2] is “No evidence for decreased cell viability”.

For N-[myr]-RRKWQKTGHAVRAIGRL-amide [mTrp], the “LY spread in the absence of ionomycin stimulation” value in data set [1] is given as “no significant difference in LY spread”. Moreover, the “LY spread after ionomycin pre-treatment in the presence of peptide” value in data set [1] (ionomycin 2 µM) is “reduced the inhibition of LY spread; also recorded: prevented the Ca^2+-induced block”. On TA-CaM, the “Hill Coefficient n TA-CaM” value amounted to 1.3 ± 0.1. At apo-DA-CaM, the “Dissociation from apo-DA-CaM, fast phase” value was found to be 130 s⁻¹ and the “Dissociation from apo-DA-CaM, slow phase” value came to 0.9 s⁻¹.
